What was measured:
[1] = test system: PDE IV inhibitor-induced emesis in the ferret; test: Ferret emesis: PDE4 inhibitors and neurokinin-1 receptor antagonists; format: in vivo; details: NK-1 antagonist given before oral emetic dose of PDE IV inhibitor
Procedure: Ferret Emesis: PDE4 Inhibitors and Neurokinin-1 Receptor Antagonists
Intracerebroventricular (i.c.v.) administration was performed following a surgical implantation of an i.c.v. guide cannula. Under isoflurane anaesthesia, a 22 gauge stainless steel guide cannula (total length=20 mm) was lowered 9 mm below the surface of the skull, at the midline, 2 mm anterior to the cross-suture of the posterior edge of the skull. The tip of the guide cannula is then positioned 3-5 mm directly above the area postrema. The guide cannula was fixed to the skull using 2 screws and dental acrylic cement. The animals received antibiotic (Clamoxyl LA, SmithKline Beecham, Surrey, U.K.; 15 mg kg^−1 s.c.) and analgesic injections (Zenecarp, C-Vet Limited, Edmounds, U.K.; 5 mg kg^−1 s.c.) and were housed in individual cages. They were allowed at least 1 week to recover. Intracerebroventricular administration of drugs was performed by inserting an injection unit of 24-25 mm (level of the area postrema) or 27 mm (for brain tissue injection) length into the guide cannula and infusing 2 μl of the drug solution (or vehicle) over 1 minute. […]
Anti-emetic agents ondansetron (3 mg kg^−1 i.p.), and neurokinin-1 receptor antagonists (3 mg kg^−1 i.p. or s.c.) were administered 30 minutes prior to an oral challenge with an emetic dose of selected PDE IV inhibitors. […] The emetic response was monitored as described earlier. […]

emesis in ferrets = test: Ferret emesis: PDE4 inhibitors and alpha-2 adrenoreceptor agonists/antagonists; details: for emesis following administration of the drug itself: route not stated

With `COc1ccccc1CN[C@H]1CCCN[C@H]1c1ccccc1` [CP-99,994] as the molecule, how does the “effect on PDE IV inhibitor-induced emesis” value [1] read?
The value was “abolished”.

Which “emesis following administration of the drug itself” value (emesis in ferrets) does the source give for `CS(=O)(=O)NCCN1C(=O)NC[C@]12CCN1CCc3c(oc4ccccc34)[C@@H]1C2` [MK-467] here?
Its value is “Emesis was also recorded”.

With `CN1CC[C@]2(CCN3CCc4c(oc5ccccc45)[C@@H]3C2)N(C)C1=O.Cl` [MK-912] as the molecule, how does the “emesis following administration of the drug itself” value (emesis in ferrets) read?
The value was “Emesis was also recorded”.

`Clc1cccc(Cl)c1N=C1NCCN1` [clonidine] was tested. Which “emesis induced by CT-2450” value (emesis in ferrets; 250 μg kg−1 pre-treatment, CT-2450 30 mg kg−1 p.o., all animals treated) did it give?
The value was “abolished”.

And the “animals with complete protection against R-rolipram-induced emesis” value (emesis in ferrets; 250 μg kg−1 pre-treatment, R-rolipram 3 mg kg−1 p.o.)?
Its value is “two out of three”.

What about the “animals with complete protection against RS14203-induced emesis” value (emesis in ferrets; 250 μg kg−1 pre-treatment, RS14203 1 mg kg−1 p.o.) of the same molecule?
The value was “five out of six”.

And the “latency of onset of RS14203-induced emesis” value (emesis in ferrets; RS14203 1 mg kg−1 p.o. challenge)?
The value was “increased”.

And the “number of retches and vomits induced by RS14203” value (emesis in ferrets; RS14203 1 mg kg−1 p.o. challenge, clonidine 62.5-250 μg kg−1)?
Its value is “dose-dependently decreased”.

How did the “emesis (retching and vomiting) induced by the drug itself” value (emesis in ferrets; intraperitoneal injection) turn out when `COC(=O)[C@@H]1[C@H]2C[C@H]3c4[nH]c5ccccc5c4CCN3C[C@@H]2CC[C@@H]1O` [yohimbine] was run?
Its value is “induced retching and vomiting in all ferrets treated”.
